Experimental data: patent US9328369B2, “Process for production of useful substance, and surfactant for use in the process” (priority 2009, dated 2016)

Tested on: Escherichia coli (α)
Assay: Screening of secretion efficiency, alkaline phosphatase expressing strain
Type: cell-based
Settings: surfactant 1 wt %; 37° C., 1 hour; ELISA, anti-His-tag antibody
Text: An alkaline phosphatase (phoA) gene of an Escherichia coli strain W3110 was amplified by the PCR method using primers 1 and 2 (Table 4). After being treated with restriction enzymes NdeI and BamHI, a PCR fragment was bound with an NdeI restriction enzyme site and with a BamHI restriction enzyme site of a pET-22b plasmid (product of Novagen). Then, the plasmid was transformed into an AG1 (DE3) Escherichia coli strain formed by transforming an Escherichia coli strain AG1 (product of TOYOBO Co., LTD.) with use of a λDE3 Lysogenization Kit (product of Novagen). In this manner, an alkaline phosphatase expressing strain (a) was formed.
A pdxA gene of an Escherichia coli strain W3110 was amplified by the PCR method using primers 5 and 6 (Table 4). After being treated with restriction enzymes NdeI and BamHI, a PCR fragment was bound to an NdeI restriction enzyme site and a BamHI restriction enzyme site of a pET-22b plasmid (product of Novagen). Then, the plasmid was transformed into an AG1 (DE3) Escherichia coli strain to form a PdxA expressing strain (γ).
In this manner, culture solutions were prepared.
(2) The strains were collected using a centrifuge (4,000 G, 4° C., 15 minutes). Each of the collected Escherichia coli strains was resuspended in 1 mL of a TB culture solution (product of Difco) and chloramphenicol (30 mg/L) and IPTG (100 μM) were added thereto. Shake culture at 37° C. for 3 hours induced expression of phoA, torA, and pdxA.
(3) Subsequently, harvesting using a centrifuge was carried out again (4,000 G, 4° C., 15 minutes). Each of the collected Escherichia coli strains was resuspended in 2.5 mL of a Tris-NaCl buffer solution (50 mM Tris (pH 7.5), 100 mM NaCl). The resulting solution was divided into 25-μL portions at a time to be mixed with 25 μL of a Tris-NaCl buffer solution.
(4) Then, the solution was allowed to stand at 37° C. for 1 hour. The supernatant solution was collected and diluted in a Tris-NaCl buffer solution to a proper concentration. Here, the quantification of the recombinant protein in the resulting solution was carried out by ELISA assay with use of an anti-His-tag antibody. The sample prior to the centrifugation in the process (3) was treated with ultrasonic waves (200 W, 10 minutes) and the quantification of the recombinant protein therein was similarly carried out by ELISA assay with use of an anti-His-tag antibody. The ratio of lysed bacteria was obtained with use of Escherichia coli (γ), and the secretion efficiencies of the recombinant proteins of Escherichia coli (α) and (β) were calculated by using the following formula. […] Secretion efficiency (%)=100×{(X/Y)−Z}.
In the formula, “X” represents the amount of the recombinant protein in the culture solution after removal of bacterial cells by centrifugation in the case of using Escherichia coli (α) or (β).
“Y” represents the amount of the whole recombinant protein in the culture solution in the case of using Escherichia coli (α) or (β).
“Z” represents the ratio of lysed bacteria obtained with use of Escherichia coli (γ), which is determined by the following formula: Z=Z1/Z2.
In the formula, “Z1” represents the amount of the recombinant protein in the culture solution which remains after removal of bacterial cells by centrifugation in the case of using Escherichia coli (γ).
“Z2” represents the amount of the whole recombinant protein in the culture solution in the case of using Escherichia coli (γ).
Escherichia coli (α) and (β) were each cultured in the same manner as in the above case except that polyoxyethylene (3 mol) tridecyl ether sodium acetate as the surfactant (A) was added right after the resuspension of the Escherichia coli in the buffer solution in the process (3) of A-0, in an amount of 1% by weight on the basis of the weight of the suspension of the bacterium. The secretion efficiency was calculated according to the above-mentioned definition.

Compound	Secretion efficiency (%) Escherichia coli (α) [%]
1,2-dodecandiol monooxyethylene adduct [A-4]	90.7
2-alkyl-N-carboxymethyl-N-hydroxyethyl imidazolinium betaine [A-23]	20.2
CCCCCCCCCCCCCCCCCC[N+](C)(C)C.[Cl-] [A-15, Stearyl trimethyl ammonium chloride]	37.3
CCCCCCCCCC[N+](C)(C)CCCCCCCCCC.[Cl-] [A-20, Didecyl dimethylammonium chloride]	28.7
CCCCCCCCCC[N+](C)(C)CCCCCCCCCC.[Cl-] [A-48, Didecyl dimethyl ammonium chloride]	2.7
CCCCCCCCCCCCCCCCCC[N+](C)(C)CCCCCCCCCCCCCCCCCC.[Cl-] [A-50, Distearyl dimethyl ammonium chloride]	2.3
CCCCCCCCCCCCOS(=O)(=O)[O-].[Na+] [A-69, Sodium lauryl sulfate]	0.0
C[C@H](CCC(=O)[O-])[C@H]1CC[C@H]2[C@@H]3[C@H](O)C[C@@H]4C[C@H](O)CC[C@]4(C)[C@H]3C[C@H](O)[C@]12C.[Na+] [A-82, sodium cholate]	0.0
Behenylamide propyldimethylamine [A-47]	2.8
Didecyl dimethyl ammonium adipate [A-42]	4.3
EO 3 mol adduct of higher alcohol (C11 to C 15) [A-10]	56.9
EO 6 mol adduct of decyl alcohol [A-12]	53.1
EO 10 mol adduct of cured castor oil [A-55]	1.7
EO 10 mol adduct of oleyl alcohol [A-59]	1.1
EO 20 mol adduct of sorbitan trioleate [A-41]	4.6
EO 24 mol adduct trilaurate of trimethylolpropane [A-64]	0.5
EO 25 mol adduct of cured castor oil [A-44]	3.0
Ester thiodipropionate of polyoxyethylene (3 mol) alkyl (C12, C15) ether [A-25]	11.8
Isostearyl alcohol polyoxyethylene (5 mol) adduct sodium ether carboxylate [A-52]	2.2
Isostearylalcohol polyoxyethylene (5 mol) sodium phosphate [A-31]	6.2
Lanolin fatty acid aminopropyl ethylene dimethyl ammonium ethyl sulfate [A-28]	9.2
Lauryl diphenyl ether sodium disulfonate [A-74]	0.0
Oleic acid 4.5 mol ester of sorbitol EO 40 mol adduct [A-63]	0.7
PO 20 mol and EO 9 mol adduct of ethylhexanol [A-51]	2.3
Palm oil fatty acid diethanol amide [A-2]	97.5

Compound	Secretion efficiency (%) Escherichia coli (α) [%]
Palm oil fatty acid sorbitan [A-54]	1.7
Polyethylene glycol diisostearate [A-22]	26.2
Polyethylene glycol diisostearate [A-38]	5.1
Polyethylene glycol monoisostearate [A-29]	7.6
Polyethylene glycol monoisostearate [A-40]	4.9
Polyoxyethylene (3 mol) lauryl ether acetate [A-24]	16.1
Polyoxyethylene (20 mol) sorbitan monolaurate [A-56]	1.6
Polyoxyethylene (20 mol) sorbitan monooleate [A-37]	5.2
Polyoxyethylene (Mw = 190) stearic acid diester [A-33]	5.5
Polyoxyethylene (Mw = 200) oleate monoester [A-35]	5.3
Polyoxyethylene (Mw = 300) oleate diester [A-57]	1.5
Polyoxyethylene (Mw = 400) oleate monoester [A-58]	1.3
Polyoxyethylene glyceryl triisostearate [A-32]	5.9
Polyoxyethylene isostearyl ether [A-34]	5.3
Polyoxyethylene(10 mol)cetyl ether [A-65]	0.5
Polyoxyethylene(EO 20 mol)sorbitan monostearate [A-72]	0.0
Polyoxyethylene(Mw = 600)oleate monoester [A-67]	0.3
Polyoxyethylene(Mw = 1000)dioleate [A-66]	0.3
Sodium dodecyl diphenyl ether disulfonate [A-8]	79.1
Sodium polyoxyethylene (2.5 mol) laurylether sulfate [A-11]	53.2
Sorbitan monooleate [A-43]	3.5
Sorbitan trioleate [A-49]	2.4
Stearylamine polyoxyethylene (15 mol) adduct [A-26]	11.0
Triethanol amine alkyl (C12, C13) sulfate [A-18]	30.7
polyoxyethylene-p-isooctyl phenol [A-16]	36.7
